From patent US4808409A, “Low cariogenic sweetening agents” (Board of Trustees, University of Illinois, priority 1984, dated 1989)
≈ marks a conversion by molar mass, not a printed value.

Assays:
in vivo = conditions: mouse, in vivo, po
Protocol: (§1) Compounds were suspended in a minimum volume of 1% sodium carboxymethylcellulose, and were administered by oral intubation at the doses indicated in Table II.
(§2) ^a Male SwissWebster mice (9 or 10 animals per dose).
(§3) ^d Mortality = number of mice dying within 14 days/number of starting
(§4) ^e Mortality = number of mice dying within 24 hours/number of startin

male Swiss-Webster mice = assay: in vivo
Protocol: as §1, §2, §3, §4

human taste panel = assay: Human taste panel magnitude estimation of sweetness intensity and pleasantness
Text: Solutions were presented to the subjects in a randomized fashion and were sampled in duplicate. After tasting, each solution was expectorated, and the mouth was washed with distilled water.

Water solubility = type: physicochemical
[1] = Stability in citrate-phosphate-borate buffer solutions by TLC; type: physicochemical
Protocol: The first of these manipulations was conducted by storage of this compound in citrate-phosphate-borate buffer solutions, at the pH levels 2, 3, 4, 6, 7, 8, 10, and 12. […] Solutions were exposed to the atmosphere after their constitution.
Compound decomposition was assessed by counting the number of zones apparent by TLC analysis 1 hour, 3 hours, 6 hours, 24 hours, 1 week and 2 weeks after solution composition.

[2] = Thermostability of neat hernandulcin at 100° C. by TLC; type: physicochemical
[3] = Body weight variation in mice following oral administration; conditions: mouse, in vivo, po
Protocol: as §1

[4] = tested on: Salmonella typhimurium strain TM677; assay: Forward mutation assay; type: cell-based; conditions: summary in words
[5] = natural hernandulcin 2.5 × 10^-4 M
[6] = synthetic hernandulcin, 60° C., 1 week and 2 weeks
[7] = synthetic hernandulcin, 100° C., 24 hours, TLC zone areas

Structure (SMILES): CC1=CC(=O)CCC1 [3-Methyl-2-cyclohexen-1-one, 3-methyl-2-cyclohexen-1-one]
- LD50 at 24 h (in vivo): < 2000 mg/kg
- Estimated LD50 (male Swiss-Webster mice; mouse, in vivo, po): 1600 ± 130 mg/kg
- Mortality at 1.1 g/kg (male Swiss-Webster mice; oral, 1.1 g/kg): 0/10
- Mortality at 1.3 g/kg (male Swiss-Webster mice; oral, 1.3 g/kg): 2/10
- Mortality at 1.4 g/kg (male Swiss-Webster mice; oral, 1.4 g/kg): 4/10
- Mortality at 1.6 g/kg (male Swiss-Webster mice; oral, 1.6 g/kg): 5/10
- Mortality at 2.0 g/kg (24 hours) (male Swiss-Webster mice; oral, 2.0 g/kg, 24 hours): 8/10
- Mortality at 2.4 g/kg (male Swiss-Webster mice; oral, 2.4 g/kg): 10/10
- Acute toxicity for mice (male Swiss-Webster mice; oral, in words): essentially non-toxic

Structure (SMILES): CC(C)=CCC[C@@](C)(O)[C@H]1CCC(C)=CC1=O (relative stereo) [Hernandulcin, 6-(1',5'-dimethyl-1'-hydroxyhex-4'-en-1'-yl)-3-methyl-2-cyclohexen-1-one]
- EC (sweetness equal to 0.27 M sucrose) (human taste panel; Homo sapiens, natural hernandulcin, distilled water, 17 participants, read-out: Concentration matching the sweetness of 0.27 M sucrose): 250 µM
- Bitterness judged by the panel (human taste panel; in words, natural hernandulcin): moderate bitterness
- Off- and after-tastes judged by the panel (human taste panel; in words, natural hernandulcin): significant off- and after-tastes
- Pleasantness judged by the panel (human taste panel; in words, natural hernandulcin): less pleasant than sucrose
- After-taste intensity (human taste panel; [5]): 30
- After-taste pleasantness (human taste panel; [5]): 0
- Bitterness (human taste panel; [5]): 15
- Off-taste intensity (human taste panel; [5]): 33
- Off-taste pleasantness (human taste panel; [5]): -5
- Concentration matching the sweetness of 0.27 M sucrose (human taste panel; natural hernandulcin, distilled water, 17 participants): ~250 µM
- Sweetness intensity, hernandulcin 1.06 × 10^-5 M (human taste panel; natural, 1.06 × 10^-5 M, scale 0-100, mean (standard error)): 9.7 (4.19)
- Sweetness pleasantness, hernandulcin 1.06 × 10^-5 M (human taste panel; natural, 1.06 × 10^-5 M, scale -100 to +100, mean (standard error)): 1.2 (5.58)
- Sweetness intensity, hernandulcin 2.11 × 10^-5 M (human taste panel; natural, 2.11 × 10^-5 M, scale 0-100, mean (standard error)): 8.8 (2.37)
- Sweetness pleasantness, hernandulcin 2.11 × 10^-5 M (human taste panel; natural, 2.11 × 10^-5 M, scale -100 to +100, mean (standard error)): 2.6 (6.00)
- Sweetness intensity, hernandulcin 4.24 × 10^-5 M (human taste panel; natural, 4.24 × 10^-5 M, scale 0-100, mean (standard error)): 8.8 (3.18)
- Sweetness pleasantness, hernandulcin 4.24 × 10^-5 M (human taste panel; natural, 4.24 × 10^-5 M, scale -100 to +100, mean (standard error)): 1.2 (4.18)
- Sweetness intensity, hernandulcin 8.47 × 10^-5 M (human taste panel; natural, 8.47 × 10^-5 M, scale 0-100, mean (standard error)): 15.8 (4.10)
- Sweetness pleasantness, hernandulcin 8.47 × 10^-5 M (human taste panel; natural, 8.47 × 10^-5 M, scale -100 to +100, mean (standard error)): 4.9 (7.67)
- Sweetness intensity, hernandulcin 16.9 × 10^-5 M (human taste panel; natural, 16.9 × 10^-5 M, scale 0-100, mean (standard error)): 39.7 (3.52)
- Sweetness pleasantness, hernandulcin 16.9 × 10^-5 M (human taste panel; natural, 16.9 × 10^-5 M, scale -100 to +100, mean (standard error)): 24.8 (7.99)
- Sweetness intensity, hernandulcin 33.9 × 10^-5 M (human taste panel; natural, 33.9 × 10^-5 M, scale 0-100, mean (standard error)): 44.4 (5.45)
- Sweetness pleasantness, hernandulcin 33.9 × 10^-5 M (human taste panel; natural, 33.9 × 10^-5 M, scale -100 to +100, mean (standard error)): 8.2 (10.70)
- Sweetness intensity, hernandulcin 67.8 × 10^-5 M (human taste panel; natural, 67.8 × 10^-5 M, scale 0-100, mean (standard error)): 62.7 (5.59)
- Sweetness pleasantness, hernandulcin 67.8 × 10^-5 M (human taste panel; natural, 67.8 × 10^-5 M, scale -100 to +100, mean (standard error)): -16.2 (9.78)
- Sweetness intensity at matched concentration (human taste panel; scale 0-100, sucrose 0.27 M, natural hernandulcin 2.5 × 10^-4 M): 40
- Sweetness pleasantness at matched concentration (human taste panel; scale -100 to +100, natural hernandulcin 2.5 × 10^-4 M): 15
- solubility (Water solubility): ~500 µg/mL (≈ 2120 µM)
- Detectability of hernandulcin after storage [1, 6]: detectable at all pH's
- pH dependence of decomposition [1, 6]: greater degrees of decomposition being observed at the acid and alkaline pH extremes
- Breakdown in buffer at 60° C., 1 week and 2 weeks ([1]; synthetic hernandulcin, about 0.1 wt. %, pH 2-12, 60° C.): substantial breakdown was apparent in all solutions
- Decomposition in buffer at 60° C., up to 24 hours ([1]; synthetic hernandulcin, about 0.1 wt. %, pH 2-12, 60° C., up to 24 hours): no decomposition was observed
- Breakdown in buffer at room temperature ([1]; synthetic hernandulcin, about 0.1 wt. %, pH 2-12, room temperature, up to two weeks): no compound breakdown was evident
- Stability to hydrolysis ([1]; wide pH range, up to about 60° C.): relatively stable to hydrolysis over a wide pH range
- remaining at 24 h ([2]; neat compound, read-out: Compound remaining unchanged): ~60%
- Conversion to 3-methyl-2-cyclohexen-1-one [2, 7]: ~10%
- Conversion to 6-methyl-5-hepten-2-one [2, 7]: ~10%
- Acute toxicity for mice (male Swiss-Webster mice; oral, in words): non-toxic
- Mortality at doses up to 2 g/kg (male Swiss-Webster mice; oral, up to 2 g/kg body weight, in words): no mortality
- Body weight, Day 1 (1.0 g/kg) [3]: 27.1 ± 0.8 g
- Body weight, Day 1 (2.0 g/kg) [3]: 25.6 ± 0.9 g
- Body weight, Day 3 (1.0 g/kg) [3]: 26.7 ± 0.8 g
- Body weight, Day 3 (2.0 g/kg) [3]: 26.3 ± 0.9 g
- Body weight, Day 7 (1.0 g/kg) [3]: 27.9 ± 0.8 g
- Body weight, Day 7 (2.0 g/kg) [3]: 26.0 ± 0.9 g
- Body weight, Day 14 (1.0 g/kg) [3]: 28.1 ± 0.8 g
- Body weight, Day 14 (2.0 g/kg) [3]: 27.6 ± 0.9 g
- Body weight, pre-drug (1.0 g/kg group) [3]: 29.3 ± 0.8 g
- Body weight, pre-drug (2.0 g/kg group) [3]: 26.0 ± 0.9 g
- Mutagenicity [4]: non-mutagenic
